Measurements: patent US12678509B2, “Inhibitor of apoptosis (IAP) protein antagonists” (Sanford Burnham Prebys Medical Discovery Institute, priority 2019, dated 2026)
Where two headings read alike, the source gives them in different places.

Assays:
ML-IAP = target: T1, ML-IAP (Homo sapiens, UniProt Q96CA5); test: Fluorescence polarization assay; type: binding; settings: SMAC-FITC probe, Ki calculated from IC50
T1 sequence (Q96CA5 1-298): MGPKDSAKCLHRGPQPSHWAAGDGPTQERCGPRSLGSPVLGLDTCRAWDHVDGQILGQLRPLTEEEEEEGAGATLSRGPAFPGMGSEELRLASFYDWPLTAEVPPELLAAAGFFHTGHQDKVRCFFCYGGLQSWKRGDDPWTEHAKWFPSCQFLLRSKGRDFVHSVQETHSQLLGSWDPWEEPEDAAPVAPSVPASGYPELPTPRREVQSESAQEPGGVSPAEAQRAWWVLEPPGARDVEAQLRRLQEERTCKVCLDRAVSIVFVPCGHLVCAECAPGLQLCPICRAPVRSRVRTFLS
How it was run: (§1)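 Competitive FP with 50 nM SMAC-FITC probe in 100 mM KH2PO4 pH 7.5, 50 μM ZnSO4, 1 mM TCEP; cIAP1 and XIAP at 800 nM, cIAP2 and ML-IAP at 1.5 μM. Compounds 30 μM to 1.5 nM in 3-fold steps; ex 485/em 535 nm. IC50 by nonlinear fit, converted to Ki via Nikolovska-Coleska equation.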

BIR3 domain of XIAP = BIR3 domain of XIAP (Homo sapiens, UniProt P98170); test: Fluorescence polarization assay; type: binding; settings: SMAC-FITC probe, Ki calculated from IC50
How it was run: as §1

BIR3 domain of cIAP1 = BIR3 domain of cIAP1 (Homo sapiens, UniProt Q13490); test: Fluorescence polarization assay; type: binding; settings: SMAC-FITC probe, Ki calculated from IC50
How it was run: as §1

NB-4 = test: Cell viability (CellTiter-Glo); type: cell-based, Human; settings: for IC50: Homo sapiens

Chain of BIR3 domain of cIAP1 (Q13490 253-363 limits assumed): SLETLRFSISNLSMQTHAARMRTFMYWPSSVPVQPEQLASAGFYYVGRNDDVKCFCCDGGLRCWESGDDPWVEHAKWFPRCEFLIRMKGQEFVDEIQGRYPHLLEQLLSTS
Chain of BIR3 domain of XIAP (P98170 241-356 limits assumed): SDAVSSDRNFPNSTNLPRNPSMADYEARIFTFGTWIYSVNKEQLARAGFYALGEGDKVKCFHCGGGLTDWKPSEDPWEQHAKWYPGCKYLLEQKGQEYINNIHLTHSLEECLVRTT

Question: Which results are given for CN[C@@H](C)C(=O)N[C@H]1CCS[C@H]2CC(C)(C)[C@@H](C(=O)N[C@H]3c4ccccc4C[C@H]3OCC#CC#CCO[C@@H]3Cc4ccccc4[C@@H]3NC(=O)[C@H]3N4C(=O)[C@@H](NC(=O)[C@H](C)NC)CCS[C@H]4CC3(C)C)N2C1=O [Compound 18a, (2S)-1-{[(4S,7S,9aS)-74{(1S,2R)-2-[(6-{[(1S,2R)-1-({[(4S,7S,9aS)-8,8-Dimethyl-4-{[(2S)-2-(methylammonio)propanoyl]amino}-5-oxooctahydropyrrolo[2,1-b][1,3]thiazepin-7-yl]carbonyl}amino)-2,3-dihydro-1H-inden-2-yl]oxy}hexa-2,4-diyn-1-yl)oxy]-2,3-dihydro-1H-inden-1-yl}carbamoyl)-8,8-dimethyl-5-oxooctahydropyrrolo[2,1-b][1,3]thiazepinyl]amino}-N-methyl-1-oxopropan-2-ammonium dichloride]?
Answer: Ki (ML-IAP): 50 to 100 nM; Ki (BIR3 domain of XIAP): ≤ 50 nM; Ki (BIR3 domain of cIAP1): ≤ 50 nM; IC50 (NB-4; NB-4, 72 h, read-out: NB-4 Viability 72 h IC50): < 10 nM; IC50 (NB-4; NB-4, 144 h, read-out: IC50 6 d): < 10 nM; Cell viability at max. concentration (NB-4; NB-4, 6 d): I (I<10%)
